Experimental data reported in article PMC6199744, “Development of Chemical Proteomics for the Folateome and Analysis of the Kinetoplastid Folateome” (ACS Infectious Diseases, 2018).

Test system: L. major lysate proteins
Test: Multitargeted bead mixture chemoproteomics, single concentration competition, proteome-wide
Assay type: binding
Conditions: for fold change / fold change relative to vehicle control: vehicle control = 1; for fold change relative to vehicle control: competition with free ligand

CCCCCCOc1cccc(Cc2cnc(N)nc2N)c1 [compound 2]
fold change vs vehicle control (protein LMJF.22.0730 HY[…], CONSERVED): 1.07 | fold change (protein LMJF.22.1460 I/6 AUTOANTIGEN-LIKE PROTEIN): 1.1 | fold change vs vehicle control (protein LMJF.22.1540 ALANYL-TRNA SYNTHETASE, PUTATIVE): 1.04 | fold change vs vehicle control (protein LMJF.23.0370 […] OXIDASE SUBUNIT 10, PUTATIVE): 1.09 | fold change (protein LMJF.23.0830 NA/H ANTIPORTER-LIKE PROTEIN): 0.96 | fold change (protein LMJF.23.1020 HY[…], UNKNOWN FUNCTION): 1.14 | fold change (protein LMJF.23.1220 T-COMPLEX PROTEIN 1, GAMMA SUBUNIT, PUTATIVE): 1.08 | fold change vs vehicle control (protein LMJF.24.0140 ANKYRIN/TPR REPEAT PROTEIN): 1.09 | fold change (protein LMJF.24.0280 DYNEIN INTERMEDIATE-CHAIN-LIKE PROTEIN): 0.94 | fold change (protein LMJF.24.0770 MALIC ENZYME, PUTATIVE): 1.06 | fold change relative to vehicle control (protein LMJF.24.1510 IGE-DEPENDENT HISTAMINE-RELEASING FACTOR, PUTATIVE): 1.53 | fold change vs vehicle control (protein LMJF.24.1630, SUCCINATE DEHYDROGENASE FLAVOPROTEIN, PUTATIVE): 1 | fold change vs vehicle control (protein LMJF.24.1840 LYSOPHOSPHOLIPASE, PUTATIVE): 1.01 | fold change relative to vehicle control (protein LMJF.24.2060 TRANSKETOLASE): 0.99 | fold change (protein LMJF.24.2250 FATTY-ACID DESATURASE, PUTATIVE): 1.01 | fold change vs vehicle control (protein LMJF.25.0120 ELECTRON TRANSFER FLAVOPROTEIN, PUTATIVE): 1.07 | fold change vs vehicle control (protein LMJF.25.0260 DYNEIN LIGHT CHAIN 1, CYTOPLASMIC, PUTATIVE): 1.15 | fold change relative to vehicle control (protein LMJF.25.0910 CYCLOPHILIN A): 1.57 | fold change vs vehicle control (protein LMJF.25.1180, ATPASE BETA SUBUNIT, PUTATIVE): 1.17 | fold change (protein LMJF.25.1610 HY[…], CONSERVED): 1.09 | fold change (protein LMJF.25.1620 HY[…], CONSERVED): 1.15 | fold change vs vehicle control (protein LMJF.26.1240 HEAT SHOCK PROTEIN 70-RELATED PROTEIN): 1.01 | fold change vs vehicle control (protein LMJF.26.1710 […] OXIDASE SUBUNIT V, PUTATIVE): 1.08 | fold change vs vehicle control (protein LMJF.26.1960 HY[…], CONSERVED): 1.05 | fold change vs vehicle control (protein LMJF.26.2000 HYPOTHETICAL PROTEIN, CONSERVED): 1.23 | fold change vs vehicle control (protein LMJF.27.0420 RIBOKINASE, PUTATIVE): 1.18 | fold change vs vehicle control (protein LMJF.27.1060 CYSTEINE DESULFURASE, PUTATIVE): 0.93 | fold change (protein LMJF.27.1310 ARGINYL-TRNA SYNTHETASE, PUTATIVE): 0.98 | fold change vs vehicle control (protein LMJF.27.2400 HEAT SHOCK PROTEIN DNAJ, PUTATIVE): 0.96 | fold change vs vehicle control (protein LMJF.28.0110 […] 3 SUBUNIT, PUTATIVE): 1.07 | fold change vs vehicle control (protein LMJF.28.0930 HY[…], CONSERVED): 1.12 | fold change vs vehicle control (protein LMJF.28.0950 HY[…], CONSERVED): 1.03 | fold change vs vehicle control (protein LMJF.28.1950 X-PRO, DIPEPTIDYL-PEPTIDASE,SERINE PEPTIDASE, CLAN SC, FAMILY S15, PUTATIVE): 1.13 | fold change relative to vehicle control (protein LMJF.28.2770 HEAT-SHOCK PROTEIN HSP70, PUTATIVE): 1.25 | fold change (protein LMJF.29.0060 TRYPTOPHANYL-TRNA SYNTHETASE, PUTATIVE): 1.06 | fold change (protein LMJF.29.0820 CYSTEINE PEPTIDASE C (CPC)): 0.82 | fold change relative to vehicle control (protein LMJF.29.0850 HIGH MOBILITY GROUP PROTEIN HOMOLOG TDP-1, PUTATIVE): 1.3 | fold change vs vehicle control (protein LMJF.29.1160 TRYPAREDOXIN): 1.04 | fold change (protein LMJF.29.1760 PARAFLAGELLAR ROD PROTEIN 1D, PUTATIVE): 0.97 | fold change vs vehicle control (protein LMJF.29.1780 DIPHTHAMIDE SYNTHESIS PROTEIN, PUTATIVE): 0.98 | fold change vs vehicle control (protein LMJF.29.2240 AMINOPEPTIDASE, PUTATIVE): 1.11 | fold change (protein LMJF.29.2310 ENOYL-COA HYDRATASE/ISOMERASE-LIKE PROTEIN): 1.08 | fold change (protein LMJF.29.2860 40S RIBOSOMAL PROTEIN S19-LIKE PROTEIN): 1.19 | fold change vs vehicle control (protein LMJF.30.0850 SURFACE PROTEIN AMASTIN, PUTATIVE): 1.16 | fold change (protein LMJF.30.1250 PYRIDOXAL KINASE, PUTATIVE): 1.01 | fold change vs vehicle control (protein LMJF.30.3190 3-HYDROXY-3-METHYLGLUTARYL-COA REDUCTASE): 1.04 | fold change vs vehicle control (protein LMJF.30.3520 S-ADENOSYL[…]): 1.05 | fold change vs vehicle control (protein LMJF.31.0440 CYTOSKELETON-[…] CAP5 5, PUTATIVE): 1 | fold change (protein LMJF.31.1130 N-ACYL-L-AMINO ACID AMIDOHYDROLASE, PUTATIVE): 0.8 | fold change vs vehicle control (protein LMJF.31.1640 THIOLASE PROTEIN-LIKE PROTEIN): 1.14 | fold change (protein LMJF.31.1800 AMINO ACID PERMEASE): 1.08 | fold change (protein LMJF.31.2250 3,2-TRANS-ENOYL-COA ISOMERASE, MIT[…], PUTATIVE): 0.92 | fold change vs vehicle control (protein LMJF.31.2790 ADP-RI[…], PUTATIVE): 1.1 | fold change (protein LMJF.31.3130 […]-COA CARBOXYLASE BIOTINYLATED […]-LIKE PROTEIN): 1.03 | fold change (protein LMJF.32.0010 HYPOTHETICAL PROTEIN, CONSERVED): 0.82 | fold change vs vehicle control (protein LMJF.32.0400 ATP-DEPENDENT RNA HELICASE, PUTATIVE): 1.03 | fold change vs vehicle control (protein LMJF.32.0520 PROFILIN, PUTATIVE): 1 | fold change (protein LMJF.32.1000 […]-COMPLEX PROTEIN, PUTATIVE): 1.02 | fold change vs vehicle control (protein LMJF.32.3010 HYPOTHETICAL PROTEIN, CONSERVED,LEUCINE-RICH REPEAT PROTEIN, PUTATIVE): 0.99 | fold change vs vehicle control (protein LMJF.32.3870 MYOSIN XXI): 0.91 | fold change vs vehicle control (protein LMJF.33.0890, HY[…], CONSERVED): 1.05 | fold change vs vehicle control (protein LMJF.33.1070 HY[…], UNKNOWN FUNCTION): 1.03 | fold change (protein LMJF.33.1330 CYSTEINE CONJUGATE BETA-LYASE, AMINOTRANSFERASE- LIKE PROTEIN): 1.33 | fold change (protein LMJF.33.1610 PEPTIDASE M20/M25/M40, PUTATIVE): 1 | fold change relative to vehicle control (protein LMJF.33.1630 CYCLOPHILIN 4, PUTATIVE): 1.35 | fold change vs vehicle control (protein LMJF.33.2300 UDP-GLC 4'-EPIMERASE, PUTATIVE): 1.15 | fold change vs vehicle control (protein LMJF.33.2390 HEAT SHOCK PROTEIN, PUTATIVE): 1.12 | fold change (protein LMJF.33.2410 HY[…], CONSERVED): 1.02 | fold change (protein LMJF.33.3150 40S RIBOSOMAL PROTEIN S13, PUTATIVE): 1.22 | fold change (protein LMJF.34.3500 RUVB-LIKE 1 DNA HELICASE, PUTATIVE): 1.2 | fold change (protein LMJF.34.3670 VACUOLAR ATP SYNTHASE CATALYTIC SUBUNIT A, PUTATIVE): 1.09 | fold change (protein LMJF.34.3740 SERINE PALMITOYLTRANSFERASE-LIKE PROTEIN): 0.95 | fold change (protein LMJF.34.4120 HYPOTHETICAL PROTEIN, CONSERVED): 0.91 | fold change vs vehicle control (protein LMJF.34.4370 20S […] 7 SUBUNIT, (PUTATIVE)): 1.06 | fold change (protein LMJF.35.0370 ATP-DEPENDENT DEAD-BOX RNA HELICASE, PUTATIVE): 1.03 | fold change vs vehicle control (protein LMJF.35.1380, MIT[…], BETA SUBUNIT, PUTATIVE): 1.09 | fold change vs vehicle control (protein LMJF.35.1410 THREONYL-TRNA SYNTHETASE, PUTATIVE): 0.97 | fold change vs vehicle control (protein LMJF.35.1720 CYCLOPHILIN 14, PUTATIVE): 1.13 | fold change (protein LMJF.35.2500 HY[…], CONSERVED): 1.03 | fold change (protein LMJF.35.2730 ACYL-COA DEHYDROGENASE, PUTATIVE): 1.02 | fold change relative to vehicle control (protein LMJF.35.3010 […],TRYPANOTHIONE-DEPENDENT […]): 1.16 | fold change vs vehicle control (protein LMJF.35.3100 ATP-DEPENDENT RNA HELICASE, PUTATIVE): 1.09 | fold change vs vehicle control (protein LMJF.35.3340 6-phosphogluconate dehydrogenase): 1.05 | fold change (protein LMJF.35.3700 GIM5A PROTEIN, PUTATIVE,[…] PROTEIN): 1.04 | fold change vs vehicle control (protein LMJF.35.3840 PROTEASOME BETA 2 SUBUNIT, PUTATIVE): 0.82 | fold change vs vehicle control (protein LMJF.35.3860 T-COMPLEX PROTEIN 1, ETA SUBUNIT, PUTATIVE): 1.06 | fold change (protein LMJF.35.4550 HYPOTHETICAL PROTEIN, CONSERVED): 0.88 | fold change (protein LMJF.35.4770 CYCLOPHILIN 40): 0.93 | fold change (protein LMJF.35.4850 PROTEASOME ALPHA 1 SUBUNIT, PUTATIVE): 1.1 | fold change (protein LMJF.35.4860 HYPOTHETICAL PROTEIN, CONSERVED): 0.97 | fold change relative to vehicle control (protein LMJF.35.5330 ISOPENTENYL-D[…]-ISOMERASE, PUTATIVE,ISOMERASE, PUTATIVE): 1.17 | fold change vs vehicle control (protein LMJF.36.0180 ELONGATION FACTOR 2): 1.2 | fold change vs vehicle control (protein LMJF.36.0620 HYPOTHETICAL PROTEIN, CONSERVED): 1.47 | fold change vs vehicle control (protein LMJF.36.0990 40S RIBOSOMAL PROTEIN S10, PUTATIVE): 1.17 | fold change vs vehicle control (protein LMJF.36.2020 CHAPERONIN HSP60, MIT[…]): 1.01 | fold change vs vehicle control (protein LMJF.36.3460 HYPOTHETICAL PROTEIN, CONSERVED): 0.88 | fold change (protein LMJF.36.3760 60S RIBOSOMAL PROTEIN L10A, PUTATIVE): 1.2 | fold change vs vehicle control (protein LMJF.36.3840 GLYCYL TRNA SYNTHETASE, PUTATIVE): 1.06 | fold change vs vehicle control (protein LMJF.36.4170 OXIDOREDUCTASE, PUTATIVE): 1.05 | fold change vs vehicle control (protein LMJF.36.5010 40S RIBOSOMAL PROTEIN SA, PUTATIVE): 1.14 | fold change (protein LMJF.36.5390 PHOSPHORIBOSYLPYROPHOSPHATE SYNTHETASE, PUTATIVE): 0.96 | fold change vs vehicle control (protein LMJF.36.5620 ISOLEUCYL-TRNA SYNTHETASE, PUTATIVE): 1.15 | fold change vs vehicle control (protein LMJF.36.6430 PROTEIN TRANSPORT PROTEIN SEC23-LIKE PROTEIN): 1.05 | fold change (protein LMJF.36.6760 HYPOTHETICAL PROTEIN, CONSERVED): 1.1 | fold change vs vehicle control (protein LMJF.36.6910 T-COMPLEX PROTEIN 1, THETA SUBUNIT, PUTATIVE): 1.05 | fold change vs vehicle control (protein LMJF.36.6940 disulfide isomerase PDI): 1.3 | fold change vs vehicle control (protein LMJF.[…] […] EXOPOLYPHOSPHATASE, PUTATIVE): 0.78
